Measurements taken from ChEMBL document CHEMBL3885881, “DrugMatrix”.

Species on record: Rattus norvegicus
Test: DrugMatrix - Regimen: Daily Repeat
Assay type: toxicity, organism-based, Sprague-Dawley
Parameters: regimen Daily Repeat, gender Male, age 6-8 weeks
Conditions: in vivo, po, route oral GAVAGE, vehicle .5 % CMC; for CARBON DIOXIDE / CHLORIDE / CHOLESTEROL / CREATINE PHOSPHOKINASE / CREATININE / GLUCOSE / LACTATE DEHYDROGENASE / LIPASE / PHOSPHORUS / POTASSIUM / SODIUM / TOTAL BILIRUBIN / TOTAL PROTEIN / URIC ACID / ALANINE AMINOTRANSFERASE / ALBUMIN / ALKALINE PHOSPHATASE / ASPARTATE AMINOTRANSFERASE / BLOOD UREA NITROGEN: tissue Plasma; for ABSOLUTE BASOPHIL / ABSOLUTE EOSINOPHIL / ABSOLUTE LYMPHOCYTE / ABSOLUTE MONOCYTE / ABSOLUTE SEGMENTED NEUTROPHIL / BASOPHIL / EOSINOPHIL / ERYTHROCYTE COUNT / HEMATOCRIT / HEMOGLOBIN / LEUKOCYTE COUNT / LYMPHOCYTE / MEAN CORPUSCULAR HEMOGLOBIN / MEAN CORPUSCULAR HEMOGLOBIN CONCENTRATION / MEAN CORPUSCULAR VOLUME / MONOCYTE / NEUTROPHIL / NUCLEATED RED BLOOD CELLS / PLATELET COUNT: tissue Blood
[1] = 7 mg/kg, 120 h, dose level Low, time 5 day
[2] = 70 mg/kg, 72 h, dose level High, time 3 day
[3] = 70 mg/kg, 120 h, dose level High, time 5 day
[4] = 140 mg/kg, 72 h, dose level Low, time 3 day

For `NC1=NC(=O)C(c2ccccc2)O1` (configuration not stated) [PEMOLINE], the “CARBON DIOXIDE” value [1] was 34.67 mmol/L, the CHLORIDE [1] was 103 MEQ/L and the CHOLESTEROL [1] was 67.67 mg/dL. For the same molecule, the “CREATINE PHOSPHOKINASE” value [1] was 147.33 u/L, the CREATININE [1] was 0.12 mg/dL and the GLUCOSE [1] was 151.67 mg/dL. For the same molecule, the “LACTATE DEHYDROGENASE” value [1] was 92.33 u/L, the LIPASE [1] was 9 u/L and the PHOSPHORUS [1] was 13.57 mg/dL. The POTASSIUM [1] was 6.78 MEQ/L, the SODIUM [1] was 146.93 MEQ/L and the “TOTAL BILIRUBIN” value [1] was 0.17 mg/dL. The “TOTAL PROTEIN” value [1] was 5.77 G/DL, the “URIC ACID” value [1] was 1.33 mg/dL and the “ABSOLUTE BASOPHIL” value [2] was 0 CELLS/uL. The “ABSOLUTE EOSINOPHIL” value [2] was 0 CELLS/uL, the “ABSOLUTE LYMPHOCYTE” value [2] was 14699.33 CELLS/uL and the “ABSOLUTE MONOCYTE” value [2] was 90.67 CELLS/uL. For the same molecule, the “ABSOLUTE SEGMENTED NEUTROPHIL” value [2] was 1243.33 CELLS/uL, the BASOPHIL [2] was 0% and the EOSINOPHIL [2] was 0%. The “ERYTHROCYTE COUNT” value [2] was 5.56 x10E6/uL, the HEMATOCRIT [2] was 35.23% and the HEMOGLOBIN [2] was 14.27 G/DL. For the same molecule, the “LEUKOCYTE COUNT” value [2] was 16.03 x10E3/uL, the LYMPHOCYTE [2] was 91.33% and the “MEAN CORPUSCULAR HEMOGLOBIN” value [2] was 25.7 pg. The “MEAN CORPUSCULAR HEMOGLOBIN CONCENTRATION” value [2] was 40.47 G/DL, the “MEAN CORPUSCULAR VOLUME” value [2] was 63.43 fL and the MONOCYTE [2] was 0.67%. The NEUTROPHIL [2] was 8%, the “NUCLEATED RED BLOOD CELLS” value [2] was 0 /100WBC and the “PLATELET COUNT” value [2] was 1042 x10E3/uL. For the same molecule, the “ALANINE AMINOTRANSFERASE” value [2] was 48 u/L, the ALBUMIN [2] was 4.17 G/DL and the “ALKALINE PHOSPHATASE” value [2] was 389 u/L. For the same molecule, the “ASPARTATE AMINOTRANSFERASE” value [2] was 92.67 u/L, the “BLOOD UREA NITROGEN” value [2] was 15.33 mg/dL and the “CARBON DIOXIDE” value [2] was 33 mmol/L. For the same molecule, the CHLORIDE [2] was 100.67 MEQ/L, the CHOLESTEROL [2] was 58.33 mg/dL and the “CREATINE PHOSPHOKINASE” value [2] was 270 u/L. For the same molecule, the CREATININE [2] was 0.15 mg/dL, the GLUCOSE [2] was 154 mg/dL and the “LACTATE DEHYDROGENASE” value [2] was 211.33 u/L. The LIPASE [2] was 8.67 u/L, the PHOSPHORUS [2] was 13.6 mg/dL and the POTASSIUM [2] was 6.81 MEQ/L. The SODIUM [2] was 144.87 MEQ/L, the “TOTAL BILIRUBIN” value [2] was 0.1 mg/dL and the “TOTAL PROTEIN” value [2] was 5.8 G/DL. For the same molecule, the “URIC ACID” value [2] was 1.6 mg/dL, the “ABSOLUTE BASOPHIL” value [3] was 0 CELLS/uL and the “ABSOLUTE EOSINOPHIL” value [3] was 0 CELLS/uL. For the same molecule, the “ABSOLUTE LYMPHOCYTE” value [3] was 16458 CELLS/uL, the “ABSOLUTE MONOCYTE” value [3] was 255.33 CELLS/uL and the “ABSOLUTE SEGMENTED NEUTROPHIL” value [3] was 886.67 CELLS/uL. The BASOPHIL [3] was 0%, the EOSINOPHIL [3] was 0% and the “ERYTHROCYTE COUNT” value [3] was 5.79 x10E6/uL. The HEMATOCRIT [3] was 36.57%, the HEMOGLOBIN [3] was 14.87 G/DL and the “LEUKOCYTE COUNT” value [3] was 17.6 x10E3/uL. For the same molecule, the LYMPHOCYTE [3] was 93%, the “MEAN CORPUSCULAR HEMOGLOBIN” value [3] was 25.7 pg and the “MEAN CORPUSCULAR HEMOGLOBIN CONCENTRATION” value [3] was 40.63 G/DL. For the same molecule, the “MEAN CORPUSCULAR VOLUME” value [3] was 63.23 fL, the MONOCYTE [3] was 1.67% and the NEUTROPHIL [3] was 5.33%. For the same molecule, the “NUCLEATED RED BLOOD CELLS” value [3] was 0.33 /100WBC, the “PLATELET COUNT” value [3] was 1251.67 x10E3/uL and the “ALANINE AMINOTRANSFERASE” value [3] was 59.67 u/L. The ALBUMIN [3] was 4.33 G/DL, the “ALKALINE PHOSPHATASE” value [3] was 378.67 u/L and the “ASPARTATE AMINOTRANSFERASE” value [3] was 96.33 u/L. The “BLOOD UREA NITROGEN” value [3] was 18.67 mg/dL, the “CARBON DIOXIDE” value [3] was 33.33 mmol/L and the CHLORIDE [3] was 100.33 MEQ/L. The CHOLESTEROL [3] was 64 mg/dL, the “CREATINE PHOSPHOKINASE” value [3] was 276.33 u/L and the CREATININE [3] was 0.23 mg/dL. For the same molecule, the GLUCOSE [3] was 139 mg/dL, the “LACTATE DEHYDROGENASE” value [3] was 306.33 u/L and the LIPASE [3] was 10.67 u/L. It also gave a PHOSPHORUS [3] of 12.97 mg/dL, a POTASSIUM [3] of 6.82 MEQ/L and an SODIUM [3] of 144.9 MEQ/L. The “TOTAL BILIRUBIN” value [3] was 0.2 mg/dL, the “TOTAL PROTEIN” value [3] was 6.03 G/DL and the “URIC ACID” value [3] was 1.9 mg/dL. The BASOPHIL [4] was 0%, the EOSINOPHIL [4] was 1% and the “ERYTHROCYTE COUNT” value [4] was 6.27 x10E6/uL. The HEMATOCRIT [4] was 38.3%, the HEMOGLOBIN [4] was 14.3 G/DL and the “LEUKOCYTE COUNT” value [4] was 13.1 x10E3/uL. For the same molecule, the LYMPHOCYTE [4] was 92%, the “MEAN CORPUSCULAR HEMOGLOBIN” value [4] was 22.8 pg and the “MEAN CORPUSCULAR HEMOGLOBIN CONCENTRATION” value [4] was 37.3 G/DL. For the same molecule, the “MEAN CORPUSCULAR VOLUME” value [4] was 61.1 fL, the MONOCYTE [4] was 1% and the NEUTROPHIL [4] was 6%. For the same molecule, the “PLATELET COUNT” value [4] was 1285 x10E3/uL, the “ALANINE AMINOTRANSFERASE” value [4] was 34.5 u/L and the ALBUMIN [4] was 3.25 G/DL. For the same molecule, the “ALKALINE PHOSPHATASE” value [4] was 286.5 u/L, the “ASPARTATE AMINOTRANSFERASE” value [4] was 93.5 u/L and the “BLOOD UREA NITROGEN” value [4] was 15.5 mg/dL. The CHLORIDE [4] was 105.5 MEQ/L, the CHOLESTEROL [4] was 58.5 mg/dL and the “CREATINE PHOSPHOKINASE” value [4] was 130 u/L. For the same molecule, the CREATININE [4] was 0.75 mg/dL, the GLUCOSE [4] was 137.5 mg/dL and the PHOSPHORUS [4] was 12.65 mg/dL. The POTASSIUM [4] was 7.95 MEQ/L, the SODIUM [4] was 148 MEQ/L and the “TOTAL PROTEIN” value [4] was 5.3 G/DL.
